Literature values in patent publication US20020035459A1, “PHARMACOKINETIC-BASED DRUG DESIGN TOOL AND METHOD” (priority 1998, published 2002).

Key:
intestinal mucosa = details: permeability standards
rabbit intestinal tissue = details: donor concentration per compound; for Pe Colon: rabbit colon; for Pe Duodenum: rabbit duodenum; for Pe Ileum: rabbit ileum; for Pe Jejunum: rabbit jejunum
[1] = plasma kinetics, first order transfer

SMILES: O=C[C@H](O)[C@@H](O)[C@H](O)[C@H](O)CO [D-glucose]
- Transport mechanism (intestinal mucosa): Carrier-mediated Influx
- Pe Colon (rabbit intestinal tissue): 9.28 ×10⁻⁶ cm/s
- Pe Duodenum (rabbit intestinal tissue): 4.55 ×10⁻⁶ cm/s
- Pe Ileum (rabbit intestinal tissue): 14.5 ×10⁻⁶ cm/s
- Pe Jejunum (rabbit intestinal tissue): 10.2 ×10⁻⁶ cm/s

SMILES: Nc1nc2c(ncn2COC(CO)CO)c(=O)[nH]1.[Na] [Gancyclovir, 9-(1,3-dihydroxy-2-propoxymethyl)guanine, monosodium salt]
- k21 [1]: 0.670

SMILES: OC[C@@H](O)[C@@H](O)[C@H](O)[C@H](O)CO [mannitol]
- Transport mechanism (intestinal mucosa): Passive Paracellular
- Pe Colon (rabbit intestinal tissue): 5.53 ×10⁻⁶ cm/s
- Pe Duodenum (rabbit intestinal tissue): 1.73 ×10⁻⁶ cm/s
- Pe Ileum (rabbit intestinal tissue): 4.02 ×10⁻⁶ cm/s
- Pe Jejunum (rabbit intestinal tissue): 3.54 ×10⁻⁶ cm/s

SMILES: C[C@]12CCC(=O)C=C1CC[C@@H]1[C@@H]2[C@@H](O)C[C@@]2(C)[C@H]1CC[C@]2(O)C(=O)CO [hydrocortisone]
- Pe Colon (rabbit intestinal tissue): 3.85 ×10⁻⁶ cm/s
- Pe Duodenum (rabbit intestinal tissue): 0.3 ×10⁻⁶ cm/s
- Pe Ileum (rabbit intestinal tissue): 2.91 ×10⁻⁶ cm/s
- Pe Jejunum (rabbit intestinal tissue): 1.31 ×10⁻⁶ cm/s
